Conditions: Liquid, Ebulliometric method (Recirculating still)

CCCCN [1-butanamine]
Conditions	vapor or sublimation pressure [kPa]
308.3 K	19.99
314.7 K	26.66
319.9 K	33.33
328.2 K	46.66
334.8 K	59.99
337.9 K	66.66
345.1 K	86.66
350 K	101.33

C1CCNC1 [pyrrolidine]
Conditions	vapor or sublimation pressure [kPa]
316.9 K	19.99
323.4 K	26.66
329 K	33.33
337.6 K	46.66
347.5 K	66.66
354.9 K	86.66
359.4 K	101.33

CCNCC [diethylamine]
Conditions	vapor or sublimation pressure [kPa]
294.7 K	26.66
299.5 K	33.33
307.6 K	46.66
316.7 K	66.66
323.9 K	86.66
328.3 K	101.33
